In the assay the target is human ACMSD (Homo sapiens (Human), UniProt Q8TDX5). Kind of assay: Human ACMSD-1 inhibitor assay (coupled 3-HAO/ACMSD, absorbance at 360 nm). The following applies: read-out: hACMSD IC50; human ACMSD 6 μg/ml, 50 mM MES pH 6.0, 28° C., four-parameter dose-response fit.
Chain of human ACMSD (Q8TDX5 whole entry): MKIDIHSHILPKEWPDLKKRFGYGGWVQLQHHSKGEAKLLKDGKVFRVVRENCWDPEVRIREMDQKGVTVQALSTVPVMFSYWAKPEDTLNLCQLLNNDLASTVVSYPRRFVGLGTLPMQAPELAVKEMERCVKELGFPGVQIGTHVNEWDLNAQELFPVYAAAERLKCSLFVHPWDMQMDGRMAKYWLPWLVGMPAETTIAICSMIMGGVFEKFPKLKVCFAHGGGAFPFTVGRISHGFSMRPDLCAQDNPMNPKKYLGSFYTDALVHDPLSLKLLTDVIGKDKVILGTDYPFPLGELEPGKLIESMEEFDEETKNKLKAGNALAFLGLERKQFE
Experimental: A solution of 7.8 μg/ml 3-hydroxyanthranilate 3,4-dioxygenase (3-HAO) with protein dilution buffer (50 mM 4-Morpholineethanesulfonic acid “MES” pH 6.0) and a solution of 6 μg/ml Human 2-amino-3-carboxymuconate-6-semialdehyde decarboxylase (human ACMSD) with protein dilution buffer (50 mM MES pH 6.0) were prepared separately. A serial 2-fold dilution of test compounds, from 512 nM until 0.5 nM were prepared.
The plate was placed into a SpectraMax Plus 384 Microplate Reader, Molecular Devices with the temperature set to 28° C. The absorbance at 360 nm for 10 min with 10 seconds interval was monitored and recorded.
To a 96-well plate was added 50 μl of 6 μg/ml human ACMSD with series concentrations of the test compound. The absorbance was recorded at 360 nm for 10 min with 10 seconds interval. The data was analyzed in GraphPad Prism 6. A four-parameter dose-response curve was fitted. “Hill Slope” was constrained between −0.5 and −3, and such constrains was indicated when applied.
For `N#Cc1c(-c2cccs2)cc(=O)[nH]c1SCc1cccc(C(=O)O)c1` [Ex. 23, 3-(((3-cyano-6-oxo-4-(thiophen-2-yl)-1,6-dihydropyridin-2-yl)thio)methyl)benzoic acid], the IC50 – broadly, the concentration at which inhibition is half-maximal – was determined as 7 nM. With `N#Cc1c(C(F)(F)F)cc(=O)[nH]c1SCC(=O)O` [Ex. 1, 2-((3-cyano-6-oxo-4-(trifluoromethyl)-1,6-dihydropyridin-2-yl)thio)acetic acid] the figure was 6 nM; with `N#Cc1c(-c2cccs2)cc(=O)[nH]c1SCc1cccc(-c2nnn[nH]2)c1` [Ex. 49, 2-((3-(1H-tetrazol-5-yl)benzyl)thio)-6-oxo-4-(thiophen-2-yl)-1,6-dihydropyridine-3-carbonitrile], 6 nM; with `CC(C)(C)c1cc(=O)[nH]c(SCC(=O)O)c1C#N` [Ex. 10, 2-((4-(tert-butyl)-3-cyano-6-oxo-1,6-dihydropyridin-2-yl)thio)acetic acid], 4600 nM. With `N#Cc1c(C(F)(F)F)cc(=O)[nH]c1SCc1nnn[nH]1` [Ex. 43, 2-(((1H-tetrazol-5-yl)methyl)thio)-6-oxo-4-(trifluoromethyl)-1,6-dihydropyridine-3-carbonitrile] the figure was 4 nM; with `COc1ccc(C(=O)O)cc1CSc1[nH]c(=O)cc(C(F)(F)F)c1C#N` [Ex. 16, 3-(((3-cyano-6-oxo-4-(trifluoromethyl)-1,6-dihydropyridin-2-yl)thio)methyl)-4-methoxybenzoic acid], 530 nM; with `N#Cc1c(SCC(=O)O)[nH]c(=O)c(C#N)c1C(F)(F)F` [Ex. 39, 2-((3,5-dicyano-6-oxo-4-(trifluoromethyl)-1,6-dihydropyridin-2-yl)thio)acetic acid], over 10000 nM. Under `N#Cc1c(C(F)(F)F)cc(=O)[nH]c1SCc1cc(-c2nnn[nH]2)ccc1Cl` [Ex. 45, 2-(2-chloro-5-(1H-tetrazol-5-yl)benzylthio)-6-oxo-4-(trifluoromethyl)-1,6-dihydropyridine-3-carbonitrile] stands 4 nM.

As for `N#Cc1c(C(F)(F)F)cc(=O)[nH]c1SCc1cc(F)cc(C(=O)O)c1` [Ex. 20, 3-(((3-cyano-6-oxo-4-(trifluoromethyl)-1,6-dihydropyridin-2-yl)thio)methyl)-5-fluorobenzoic acid], the IC50 was determined as 350 nM. Under `N#Cc1c(SCC(=O)O)[nH]c(=O)c(Cl)c1C(F)(F)F` [Ex. 38, 2-(5-chloro-3-cyano-6-oxo-4-(trifluoromethyl)-1,6-dihydropyridin-2-ylthio)acetic acid] stands 11 nM.

With `N#Cc1c(Cc2ccccc2)cc(=O)[nH]c1SCc1nn[nH]n1` [Ex. 53, 2-(((2H-tetrazol-5-yl)methyl)thio)-4-benzyl-6-oxo-1,6-dihydropyridine-3-carbonitrile], the IC50 turned out to be 2 nM. With `Cc1cc(=O)[nH]c(SCc2cccc(C(=O)O)c2)c1C#N` [Ex. 56, 3-(((3-cyano-4-methyl-6-oxo-1,6-dihydropyridin-2-yl)thio)methyl)benzoic acid] the figure was 6750 nM.

For `Cc1ccc(C(=O)O)cc1CSc1[nH]c(=O)cc(C(F)(F)F)c1C#N` [Ex. 44, 3-((3-cyano-6-oxo-4-(trifluoromethyl)-1,6-dihydropyridin-2-ylthio)methyl)-4-methylbenzoic acid], the IC50 stood at 510 nM. With `N#Cc1c(SCc2cccc(C(=O)O)c2)[nH]c(=O)c(F)c1-c1ccccc1` [Ex. 30, 3-(((3-cyano-5-fluoro-6-oxo-4-phenyl-1,6-dihydropyridin-2-yl)thio)methyl)benzoic acid] the figure was 70 nM; with `COc1c(C(F)(F)F)c(C#N)c(SCC(=O)O)[nH]c1=O` [Ex. 46, 2-(3-cyano-5-methoxy-6-oxo-4-(trifluoromethyl)-1,6-dihydropyridin-2-ylthio)acetic acid], 8 nM.

For the compound `Cc1c(C(F)(F)F)c(C#N)c(SCc2nnn[nH]2)[nH]c1=O` [Ex. 47, 2-(((1H-tetrazol-5-yl)methyl)thio)-5-methyl-6-oxo-4-(trifluoromethyl)-1,6-dihydropyridine-3-carbonitrile], the IC50 is 7 nM. For `N#Cc1c(C2CCCCC2)cc(=O)[nH]c1SCc1cccc(C(=O)O)c1` [Ex. 24, 3-(((3-cyano-4-cyclohexyl-6-oxo-1,6-dihydropyridin-2-yl)thio)methyl)benzoic acid], the half-maximal inhibitory concentration (IC50) stood at 470 nM.

For `N#Cc1c(SCc2cccc(C(=O)O)c2)[nH]c(=O)c(Cl)c1-c1ccccc1` [Ex. 41, 3-(((5-chloro-3-cyano-6-oxo-4-phenyl-1,6-dihydropyridin-2-yl)thio)methyl)benzoic acid], the IC50 turned out to be 3 nM. Under `N#Cc1c(SCc2nnn[nH]2)[nH]c(=O)c(Cl)c1C(F)(F)F` [Ex. 40, 2-((1H-tetrazol-5-yl)methylthio)-5-chloro-6-oxo-4-(trifluoromethyl)-1,6-dihydropyridine-3-carbonitrile] stands 4 nM. Consider `CC(C)c1cc(=O)[nH]c(SCC(=O)O)c1C#N` [Ex. 13, 2-((3-cyano-4-isopropyl-6-oxo-1,6-dihydropyridin-2-yl)thio)acetic acid], for which the IC50 was 2600 nM. For `N#Cc1c(-c2ccsc2)cc(=O)[nH]c1SCc1cccc(-c2nnn[nH]2)c1` [Ex. 54, 2-(3-(1H-tetrazol-5-yl)benzylthio)-6-oxo-4-(thiophen-3-yl)-1,6-dihydropyridine-3-carbonitrile], the IC50 is 9 nM. With `N#Cc1c(-c2ccccc2)cc(=O)[nH]c1SCC(=O)O` [Ex. 12, 2-((3-cyano-6-oxo-4-phenyl-1,6-dihydropyridin-2-yl)thio)acetic acid] the figure was 7000 nM; with `Cc1c(C(F)(F)F)c(C#N)c(SCC(=O)O)[nH]c1=O` [Ex. 5, 2-((3-cyano-5-methyl-6-oxo-4-(trifluoromethyl)-1,6-dihydropyridin-2-yl)thio)acetic acid], 26 nM; with `N#Cc1c(SCc2nnn[nH]2)[nH]c(=O)c(F)c1C(F)(F)F` [Ex. 48, 2-((1H-tetrazol-5-yl)methylthio)-5-fluoro-6-oxo-4-(trifluoromethyl)-1,6-dihydropyridine-3-carbonitrile], 2 nM. Under `N#Cc1c(C(F)(F)F)cc(=O)[nH]c1SCCC(=O)O` [Ex. 2, 3-(3-cyano-6-oxo-4-(trifluoromethyl)-1,6-dihydropyridin-2-ylthio)propanoic acid] stands 752 nM; under `N#Cc1c(C(F)(F)F)cc(=O)[nH]c1SC(F)(F)C(=O)O` [Ex. 28, 2-((3-cyano-6-oxo-4-(trifluoromethyl)-1,6-dihydropyridin-2-yl)thio)-2,2-difluoroacetic acid], 20 nM; under `N#Cc1c(SCC(=O)O)[nH]c(=O)c(F)c1C(F)(F)F` [Ex. 17, 2-(3-cyano-5-fluoro-6-oxo-4-(trifluoromethyl)-1,6-dihydropyridin-2-ylthio)acetic acid], 9 nM. With `N#Cc1c(C(F)F)cc(=O)[nH]c1SCC(=O)O` [Ex. 4, 2-((3-cyano-4-(difluoromethyl)-6-oxo-1,6-dihydropyridin-2-yl)thio)acetic acid] the figure was 118 nM. As to `N#Cc1c(-c2ccncc2)cc(=O)[nH]c1SCc1cccc(C(=O)O)c1` [Ex. 26, 3-(((3-cyano-6-oxo-1,6-dihydro-[4,4′-bipyridin]-2-yl)thio)methyl)benzoic acid], the IC50 was 29 nM.

For the origin of these results see US11780812B2, “Oxopyridine derivatives useful as aminocarboxymuconate semialdehyde decarboxylase (ACMSD) inhibitors” (OrsoBio, Inc., priority 2016, dated 2023).
